Results as given in US20080286394A1, “NOVEL HERBAL FORMULATION AS BRAIN TONIC” (priority 2003, published 2008).
Where “and” joins values, the source holds several entries; their conditions need not be identical. Equal entries are not always repeated. Marks after values point to notes of the source that are not given here.

Test system: impairment of memory acquisition in step-down test in mice
Assay: Passive avoidance task (step-down test), scopolamine-induced impairment of memory acquisition
Assay type: in vivo
Details: scopolamine 0.4 mg/kg alone (amnesia-inducing agent)

CN1[C@@H]2C[C@@H](OC(=O)[C@H](CO)c3ccccc3)C[C@H]1[C@@H]1O[C@@H]12 [Scopalamine, scopolamine]
Latency (sec): 7.7 ± 0.04^c sec and 7.8 ± 0.03^c sec and 7.8 ± 0.04^c sec | No of mistakes: 66.8 ± 8.9^c and 65.3 ± 8.6^c and 69.8 ± 8.9^c
